# According to patent US7781438B2, “Indolylmaleimide derivatives” (Novartis AG, priority 2005, dated 2010):
# pIC50: −log10 of the molar value.
# Key:
# Human recombinant PKCθ = Human recombinant PKCθ (Homo sapiens, UniProt Q04759); test: Protein Kinase C θ assay; type: biochemical
# Protocol: (§1) The compounds of the invention are tested for their activity on different PKC isoforms according to the following method. Assay is performed in a white with clear bottom 384-well microtiterplate with non-binding surface. The reaction mixture (25 μl) contains 1.5 μM of a tridecapeptide acceptor substrate that mimics the pseudo substrate sequence of PKC a with the Ala→Ser replacement, 10 μM ^33P-ATP, 10 mM Mg(NO3)2, 0.2 mM CaCl2, PKC at a protein concentration varying from 25 to 400 ng/ml (depending on the isotype used), lipid vesicles (containing 30 mol % phosphatidylserine, 5 mol % DAG and 65 mol % phosphatidylcholine) at a final lipid concentration of 0.5 mM, in 20 mM Tris-HCl buffer pH 7.4+0.1% BSA. Incubation is performed for 60 min at room temperature. Reaction is stopped by adding […] of stop mix (100 mM EDTA, 200 μM ATP, 0.1% Triton X-100, 0.375 mg/well streptavidin-coated SPA beads in phosphate buffered saline w/o Ca, Mg. After 10 min incubation at room temperature, the suspension is spun down for 10 min at 300 g. Incorporated radioactivity is measured in a Trilux counter for 1 min. IC50 measurement is performed on a routine basis by incubating a serial dilution of inhibitor at concentrations ranging between 1-1000 μM. IC50 values are calculated from the graph by curve fitting with XL Fit® software. […]
# Human recombinant PKCβ1 = biological target: T1, Human recombinant PKCβ1 (Homo sapiens, UniProt P05771); test: Protein Kinase Cβ1 assay; type: biochemical; settings: for pIC50: human recombinant PKCβ1, single compounds
# T1 construct: purchased Oxford Biomedical Research
# Protocol: (§2) The compounds of the invention are tested for their activity on different PKC isoforms according to the following method. Assay is performed in a white with clear bottom 384-well microtiterplate with non-binding surface. The reaction mixture (25 μl) contains 1.5 μM of a tridecapeptide acceptor substrate that mimics the pseudo substrate sequence of PKC a with the Ala→Ser replacement, 10 μM ^33P-ATP, 10 mM Mg(NO3)2, 0.2 mM CaCl2, PKC at a protein concentration varying from 25 to 400 ng/ml (depending on the isotype used), lipid vesicles (containing 30 mol % phosphatidylserine, 5 mol % DAG and 65 mol % phosphatidylcholine) at a final lipid concentration of 0.5 mM, in 20 mM Tris-HCl buffer pH 7.4+0.1% BSA. Incubation is performed for 60 min at room temperature. Reaction is stopped by adding […] of stop mix (100 mM EDTA, 200 μM ATP, 0.1% Triton X-100, 0.375 mg/well streptavidin-coated SPA beads in phosphate buffered saline w/o Ca, Mg. After 10 min incubation at room temperature, the suspension is spun down for 10 min at 300 g. Incorporated radioactivity is measured in a Trilux counter for 1 min. IC50 measurement is performed on a routine basis by incubating a serial dilution of inhibitor at concentrations ranging between 1-1000 μM. IC50 values are calculated from the graph by curve fitting with XL Fit® software.
# Human recombinant PKCβ1 was obtained from Oxford Biomedical Research and is used under the assay conditions as described under Section A.1 above.
# Human recombinant PKCδ = biological target: T2, Human recombinant PKCδ (Homo sapiens, UniProt Q05655); test: Protein Kinase Cδ assay; type: biochemical
# T2 construct: purchased Oxford Biomedical Research
# Protocol: as §1
# Human recombinant PKCε = biological target: T3, Human recombinant PKCε (Homo sapiens, UniProt Q02156); test: Protein Kinase Cε assay; type: biochemical
# T3 construct: purchased Oxford Biomedical Research
# T3 sequence (Q02156 1-737): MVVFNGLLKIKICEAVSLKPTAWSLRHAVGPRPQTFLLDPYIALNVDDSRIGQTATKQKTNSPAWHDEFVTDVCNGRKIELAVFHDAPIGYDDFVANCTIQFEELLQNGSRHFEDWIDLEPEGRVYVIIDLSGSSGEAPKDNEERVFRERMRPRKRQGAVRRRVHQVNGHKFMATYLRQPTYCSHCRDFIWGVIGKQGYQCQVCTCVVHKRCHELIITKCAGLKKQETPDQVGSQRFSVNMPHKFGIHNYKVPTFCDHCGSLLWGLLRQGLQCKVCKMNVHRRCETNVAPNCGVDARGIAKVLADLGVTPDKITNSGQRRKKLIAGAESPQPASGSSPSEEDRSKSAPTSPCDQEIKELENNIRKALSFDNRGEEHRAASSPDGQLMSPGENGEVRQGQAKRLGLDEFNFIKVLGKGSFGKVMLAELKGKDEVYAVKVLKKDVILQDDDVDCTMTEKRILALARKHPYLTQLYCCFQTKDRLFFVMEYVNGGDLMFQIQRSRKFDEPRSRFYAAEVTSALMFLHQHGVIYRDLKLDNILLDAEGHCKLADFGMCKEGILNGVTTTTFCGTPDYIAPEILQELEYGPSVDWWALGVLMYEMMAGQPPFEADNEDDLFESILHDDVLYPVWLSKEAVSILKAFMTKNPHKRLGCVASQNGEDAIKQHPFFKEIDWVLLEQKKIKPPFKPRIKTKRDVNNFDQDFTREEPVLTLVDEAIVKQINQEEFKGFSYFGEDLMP
# Protocol: as §1
# Human recombinant PKCη = biological target: T4, Human recombinant PKCη (Homo sapiens, UniProt P24723); test: Protein Kinase Cη assay; type: biochemical
# T4 construct: purchased PanVera
# Protocol: as §1
# [1] = test system: spleen cells from CBA and BALB/c mice; test: Allogeneic Mixed Lymphocyte Reaction (MLR), compared with BM assay; type: cell-based
# Protocol: The two-way MLR is performed according to standard procedures (J. Immunol. Methods, 1973, 2, 279 and Meo T. et al., Immunological Methods, New York, Academic Press, 1979, 227-39). Briefly, spleen cells from CBA and BALB/c mice (1.6×10^5 cells from each strain per well in flat bottom tissue culture microtiter plates, 3.2×10^5 in total) are incubated in RPMI medium containing 10% FCS, 100 U/ml penicillin, 100 μg/ml streptomycin (Gibco BRL, Basel, Switzerland), 50 μM 2-mercaptoethanol (Fluka, Buchs, Switzerland) and serially diluted compounds. Seven three-fold dilution steps in duplicates per test compound are performed. After four days of incubation 1 μCi ^3H-thymidine is added. Cells are harvested after an additional five-hour incubation period, and incorporated ^3H-thymidine is determined according to standard procedures. […]
# The ratios of the IC50 value for PKC β to the IC50 value for PKCα, of the IC50 value for PKC δ to the IC50 value for PKCα, of the IC50 value for PKC δ to the IC50 value for PKCα, of the IC50 value for PKC ε to the IC50 value for PKCα, of the IC50 value for PKC η to the IC50 value for PKCα, of the IC50 value for PKC θ to the IC50 value for PKCα, of the IC50 value as determined by the MLR assay and to the IC50 value as determined by the BM assay, obtained for some compounds of the invention are indicated in table 11.
# Human recombinant PKCα = biological target: T5, Human recombinant PKCα (Homo sapiens, UniProt P17252); test: Protein Kinase Cα assay; type: biochemical; settings: single compounds
# T5 construct: purchased Oxford Biomedical Research
# Protocol: as §2
# Human recombinant PKCα was obtained from Oxford Biomedical Research and is used under the assay conditions as described under Section A.1 above.
# T1 sequence (P05771 whole entry): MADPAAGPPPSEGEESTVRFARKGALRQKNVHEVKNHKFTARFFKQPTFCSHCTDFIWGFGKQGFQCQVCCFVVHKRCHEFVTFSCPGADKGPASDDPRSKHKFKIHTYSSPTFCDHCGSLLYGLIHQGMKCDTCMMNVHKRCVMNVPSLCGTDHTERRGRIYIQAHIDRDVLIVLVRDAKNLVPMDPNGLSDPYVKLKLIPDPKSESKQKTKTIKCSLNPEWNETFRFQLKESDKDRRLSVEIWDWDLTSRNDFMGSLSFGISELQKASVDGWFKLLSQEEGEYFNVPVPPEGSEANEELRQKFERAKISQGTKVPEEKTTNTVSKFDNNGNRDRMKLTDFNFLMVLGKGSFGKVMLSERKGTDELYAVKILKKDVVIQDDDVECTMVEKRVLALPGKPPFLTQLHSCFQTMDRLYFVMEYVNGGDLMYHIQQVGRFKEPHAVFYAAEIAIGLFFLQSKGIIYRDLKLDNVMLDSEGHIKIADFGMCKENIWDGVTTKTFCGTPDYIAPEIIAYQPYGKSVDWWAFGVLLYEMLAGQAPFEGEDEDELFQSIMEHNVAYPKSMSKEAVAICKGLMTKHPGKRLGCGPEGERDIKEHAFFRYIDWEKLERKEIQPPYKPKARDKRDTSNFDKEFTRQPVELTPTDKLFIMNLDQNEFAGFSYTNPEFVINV
# Chain of Human recombinant PKCθ (Q04759 whole entry, canonical isoform): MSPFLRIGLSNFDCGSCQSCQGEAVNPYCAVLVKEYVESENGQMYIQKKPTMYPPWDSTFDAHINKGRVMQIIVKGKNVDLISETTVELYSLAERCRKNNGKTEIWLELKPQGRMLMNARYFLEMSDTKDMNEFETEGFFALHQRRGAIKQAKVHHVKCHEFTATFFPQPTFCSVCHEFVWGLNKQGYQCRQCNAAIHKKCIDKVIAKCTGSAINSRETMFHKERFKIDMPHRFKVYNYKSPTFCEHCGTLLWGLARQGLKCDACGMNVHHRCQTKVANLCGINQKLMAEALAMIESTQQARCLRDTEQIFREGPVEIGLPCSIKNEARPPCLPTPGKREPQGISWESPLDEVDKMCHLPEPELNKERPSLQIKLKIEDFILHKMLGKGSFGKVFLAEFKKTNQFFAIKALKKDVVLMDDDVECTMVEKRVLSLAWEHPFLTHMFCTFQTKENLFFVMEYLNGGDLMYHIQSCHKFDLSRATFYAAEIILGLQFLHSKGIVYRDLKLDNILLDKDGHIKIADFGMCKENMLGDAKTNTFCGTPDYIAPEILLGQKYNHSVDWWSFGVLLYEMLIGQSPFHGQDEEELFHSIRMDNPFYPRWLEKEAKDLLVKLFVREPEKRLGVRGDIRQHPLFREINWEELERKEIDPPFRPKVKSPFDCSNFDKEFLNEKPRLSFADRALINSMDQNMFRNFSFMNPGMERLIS
# T2 sequence (Q05655 whole entry): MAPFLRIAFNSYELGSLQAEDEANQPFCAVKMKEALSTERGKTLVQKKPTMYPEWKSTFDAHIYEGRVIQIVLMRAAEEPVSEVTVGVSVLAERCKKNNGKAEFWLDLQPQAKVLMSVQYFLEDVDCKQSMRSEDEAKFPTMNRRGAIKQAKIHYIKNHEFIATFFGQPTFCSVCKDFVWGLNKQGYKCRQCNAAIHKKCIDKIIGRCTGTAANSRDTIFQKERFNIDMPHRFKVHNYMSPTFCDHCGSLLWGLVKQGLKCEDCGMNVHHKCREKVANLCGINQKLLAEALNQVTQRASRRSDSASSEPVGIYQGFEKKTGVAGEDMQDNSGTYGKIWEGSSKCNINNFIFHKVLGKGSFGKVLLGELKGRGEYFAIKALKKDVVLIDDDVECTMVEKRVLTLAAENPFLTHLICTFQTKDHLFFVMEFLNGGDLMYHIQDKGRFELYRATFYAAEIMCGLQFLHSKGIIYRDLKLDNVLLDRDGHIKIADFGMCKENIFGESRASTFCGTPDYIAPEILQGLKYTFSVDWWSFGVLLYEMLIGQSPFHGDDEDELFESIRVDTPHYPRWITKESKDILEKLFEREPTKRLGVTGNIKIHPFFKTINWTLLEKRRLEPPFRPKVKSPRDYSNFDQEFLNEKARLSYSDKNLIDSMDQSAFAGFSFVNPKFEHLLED
# T4 sequence (P24723 whole entry): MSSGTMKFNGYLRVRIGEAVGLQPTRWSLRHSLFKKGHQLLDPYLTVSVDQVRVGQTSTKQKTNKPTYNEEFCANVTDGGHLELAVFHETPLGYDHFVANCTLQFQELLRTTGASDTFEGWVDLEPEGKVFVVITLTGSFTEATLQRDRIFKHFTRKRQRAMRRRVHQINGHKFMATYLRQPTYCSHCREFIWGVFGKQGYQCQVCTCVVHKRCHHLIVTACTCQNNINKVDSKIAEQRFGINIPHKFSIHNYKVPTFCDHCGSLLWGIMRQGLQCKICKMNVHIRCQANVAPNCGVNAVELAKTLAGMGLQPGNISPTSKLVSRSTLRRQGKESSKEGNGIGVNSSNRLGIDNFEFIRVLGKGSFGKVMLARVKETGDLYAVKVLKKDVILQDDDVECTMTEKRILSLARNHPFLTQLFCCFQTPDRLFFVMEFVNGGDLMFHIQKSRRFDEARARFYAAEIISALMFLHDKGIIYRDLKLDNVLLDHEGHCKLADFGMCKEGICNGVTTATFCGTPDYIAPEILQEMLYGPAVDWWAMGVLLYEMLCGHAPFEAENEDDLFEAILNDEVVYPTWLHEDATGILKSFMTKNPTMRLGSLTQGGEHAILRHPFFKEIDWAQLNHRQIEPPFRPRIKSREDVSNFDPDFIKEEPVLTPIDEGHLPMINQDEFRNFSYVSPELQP
structure (smiles),measurement,setting,value
"Cn1cc(C2=C(c3c(Cl)ccc4ccc(CNCCF)cc34)C(=O)NC2=O)c2ccccc21 [Example 1, 3-{2-Chloro-7-[(2-fluoro-ethylamino)-methyl]-naphthalen-1-yl}-4-(1-methyl-1H-indol-3-yl)-pyrrole-2,5-dione]",θ/α (ratio of the IC50 value for PKC θ to the IC50 value for PKCα),Human recombinant PKCθ,2.9
same,β/α (ratio of the IC50 value for PKC β to the IC50 value for PKCα),Human recombinant PKCβ1,0.5
same,δ/α (ratio of the IC50 value for PKC δ to the IC50 value for PKCα),Human recombinant PKCδ,7.1
same,ε/α (ratio of the IC50 value for PKC ε to the IC50 value for PKCα),Human recombinant PKCε,19.4
same,η/α (ratio of the IC50 value for PKC η to the IC50 value for PKCα),Human recombinant PKCη,39.3
same,BM/MLR (ratio of IC50 by the BM assay and IC50 by the MLR assay),[1],41.3
CN(C)Cc1ccc2ccc(Cl)c(C3=C(c4cn5c6c(cccc46)OCCC5)C(=O)NC3=O)c2c1 [Example 20],θ/α (ratio of the IC50 value for PKC θ to the IC50 value for PKCα),Human recombinant PKCθ,14.2
same,pIC50,Human recombinant PKCα,7.55
same,β/α (ratio of the IC50 value for PKC β to the IC50 value for PKCα),Human recombinant PKCβ1,0.4
same,pIC50,Human recombinant PKCβ1,7.91
same,δ/α (ratio of the IC50 value for PKC δ to the IC50 value for PKCα),Human recombinant PKCδ,30.6
same,ε/α (ratio of the IC50 value for PKC ε to the IC50 value for PKCα),Human recombinant PKCε,>35.7
same,η/α (ratio of the IC50 value for PKC η to the IC50 value for PKCα),Human recombinant PKCη,>35.7
same,BM/MLR (ratio of IC50 by the BM assay and IC50 by the MLR assay),[1],>10
COc1cccc2c(C3=C(c4c(Cl)ccc5ccc(CN(C)C)cc45)C(=O)NC3=O)c[nH]c12 [Example 37],pIC50,Human recombinant PKCα,8.52
COCCOc1ccc2c(C3=C(c4c(Cl)ccc5ccc(CN(C)C)cc45)C(=O)NC3=O)c[nH]c2c1 [Example 38],pIC50,Human recombinant PKCα,8.05
Cc1cccc2c(C3=C(c4c(Cl)ccc5ncc(CN(C)C)cc45)C(=O)NC3=O)c[nH]c12 [Example 136],pIC50,Human recombinant PKCβ1,7.29
CN(C)Cc1cc2c(C3=C(c4c[nH]c5ccccc45)C(=O)NC3=O)c(Cl)ccc2cn1 [Example 146],pIC50,Human recombinant PKCβ1,7.60
CN(C)Cc1ccc2ccc(Cl)c(C3=C(c4cn(C)c5ccccc45)C(=O)NC3=O)c2n1 [Example 163],pIC50,Human recombinant PKCβ1,7.39
